Experimental data taken from patent US5338726A, “Endothelin converting enzyme inhibitors” (Abbott Laboratories, priority 1992, dated 1994).
Structures can show the parent of a compound that is named as a salt.

What follows are compounds tested against solubilized endothelin converting enzyme (P3 from rat lung) (assay: ECE Inhibitor Screening Assay). Conditions: Big ET substrate, 30 minutes at 37° C., HPLC of ET-1 and Big ET, read-out: Inhibition of Endothelin Converting Enzyme IC50.
Format: biochemical
Experimental: The above mixture without the test compound was used as the control.
Following a 15 minute preincubation at 37° C., benzyl succinate (100 μM), NaOAc, and Big ET (3 μg) were added. The mixture was incubated for 30 minutes at 37° C., followed by addition of pepstatin (40 μM) and 10% TFA to stop the reaction. The mixture was vortexed, centrifuged and the supernatant retained for HPLC determination of Big ET, ET-1 and CTF. […] Percent inhibiton calculations were made with reference to controls based on quantitation of the ET-1 and Big ET peaks at the end of the incubation period.

Row | Compound | IC50
1 | CCC(C)C(NC(=O)OC(C)(C)C)C(=O)NC(C(=O)NC(CC(C)C)C(O)CC(=O)NCCCCO)C(C)CC (stereo not shown) [Example 6, N-Boc-Isoleucyl-Isoleucyl-Statyl (4-Hydroxybutyl)carboxamide] | 57 nM
2 | CCC(C)C(NC(=O)OC(C)(C)C)C(=O)NC(C(=O)NC(CC(C)C)C(O)CC(=O)NCC(C)C)C(C)CC (stereo not shown) [Example 14, N-Boc-Isoleucyl-Isoleucyl-Statyl Isobutylcarboxamide] | 8 nM
3 | CCOC(=O)CC(O)C(CC(C)C)NC(=O)C(NC(=O)[C@@H](NC(=O)OC(C)(C)C)C(C)(C)C)C(C)CC (stereo partly drawn) [Example 1, N-{(S)-2-[(tert-Butyloxycarbonyl]amino]-3,3-dimethylbutanoyl}-Isoleucyl-Statyl Ethyl ester] | 50 nM
4 | CCC(C)C(NC(=O)OC(C)(C)C)C(=O)NC(C(=O)NC(CC(C)C)C(O)CC(=O)NCCCCCCO)C(C)CC (stereo not shown) [Example 8, N-Boc-Isoleucyl-Isoleucyl-Statyl (6-Hydroxyhexyl)carboxamide] | 39 nM
5 | CCC(C)C(NC(=O)OC(C)(C)C)C(=O)NC(C(=O)NC(CC(C)C)C(O)CC(=O)NCCC(=O)O)C(C)CC (stereo not drawn) [Example 16, N-Boc-Isoleucyl-Isoleucyl-Statyl-β-Alanyl-OH] | 30 nM
6 | CC[C@H](C)[C@H](NC(=O)OC(C)(C)C)C(=O)N[C@H](C(=O)N[C@@H](CC1CCCCC1)[C@@H](O)[C@@H](O)CC(C)C)[C@@H](C)CC [Example 24, (2S,3R,4S)-2-(N-Boc-Isoleucyl-Isoleucyl-Amino)-1-cyclohexyl-3,4-dihydroxy-6-methylheptane] | 7 nM
7 | CCC(C)C(NC(=O)C(CC1CCCCC1)NC(=O)OC(C)(C)C)C(=O)NC(CC(C)C)C(O)CC(=O)NCCc1ccccn1 (stereo not shown) [Example 40, N-Boc-Cyclohexylalanyl-Isoleucyl-Statyl N-(2-(2-Pyridyl)ethyl)Carboxamide] | 10 nM
8 | CCC(C)C(NC(=O)C(CC1CCCCC1)NC(=O)OC(C)(C)C)C(=O)NC(CC(C)C)C(O)CC(=O)O (stereo not shown) [Example 15, N-Boc-Cyclohexylalanyl-Isoleucyl-Statyl-OH] | 47 nM
9 | CCC(C)C(NC(=O)OC(C)(C)C)C(=O)NC(C(=O)NC(CC(C)C)C(O)CC(=O)NCCCCCO)C(C)CC (stereo not shown) [Example 7, N-Boc-Isoleucyl-Isoleucyl-Statyl (5-Hydroxyamyl)carboxamide] | 68 nM
10 | CCOC(=O)CCNC(=O)CC(O)C(CC(C)C)NC(=O)C(NC(=O)C(NC(=O)OC(C)(C)C)C(C)CC)C(C)CC (stereo not drawn) [Example 13, N-Boc-Isoleucyl-Isoleucyl-Statyl-β-Alanyl Ethyl ester] | 17 nM
11 | CCC(C)C(NC(=O)C(CC1CCCCC1)NC(=O)OC(C)(C)C)C(=O)N[C@@H](Cc1c[nH]c2ccccc12)C(O)CC(=O)NC(C(=O)O)C(C)C (stereo partly drawn) [Example 23, N-[(4S)-4-(N-Boc-Cyclohexylalanyl-Isoleucyl-Amino)-5-(3-indolyl)-3-hydroxypentanoyl]-Valyl-OH] | 24 nM
12 | CCOC(=O)CC(O)C(CC(C)C)NC(=O)C(NC(=O)C(CC1CCCCC1)NC(=O)OC(C)(C)C)C(C)CC (stereo not shown) [Example 12, N-Boc-Cyclohexylalanyl-Isoleucyl-Statyl Ethyl ester] | 19 nM

The next lines start with the values.

Row | IC50 | Compound
13 | 17 nM | CC[C@H](C)[C@H](NC(=O)CCC(=O)O)C(=O)N[C@H](C(=O)N[C@@H](CC1CCCCC1)[C@@H](O)[C@@H](O)CC(C)C)[C@@H](C)CC [Example 25, (2S,3R,4S)-2-(N-Succinyl-Isoleucyl-Isoleucyl-Amino)-1-cyclohexyl-3,4-dihydroxy-6-methylheptane]
14 | 20 nM | CCC(C)C(NC(=O)OC(C)(C)C)C(=O)NC(C(=O)NC(CC(C)C)C(O)CC(=O)NCCc1ccccn1)C(C)CC (stereo not shown) [Example 47, N-Boc-Isoleucyl-Isoleucyl-Statyl N-(2-(2-Pyridyl)ethyl)Carboxamide]
15 | 9 nM | CCC(C)C(NC(=O)C(CC1CCCCC1)NC(=O)OC(C)(C)C)C(=O)N[C@@H](CC1CCCCC1)[C@@H](O)[C@@H](O)CC(C)C (stereo partly shown) [Example 28]
16 | 19 nM | CCC(C)C(NC(=O)OC(C)(C)C)C(=O)NC(C(=O)NC(CC(C)C)C(O)CC(=O)NCCC(C)C)C(C)CC (stereo not shown) [Example 34, N-Boc-Isoleucyl-Isoleucyl-Statyl Isoamylcarboxamide]
17 | 6 nM | CCC(C)C(NC(=O)C(CC1CCCCC1)NC(=O)N1CCN(C)CC1)C(=O)N[C@@H](Cc1ccc2ccccc2c1)[C@@H](O)[C@@H](O)CC(C)C (stereo partly drawn) [Example 43, (2S,3R,4S)-2-{[IN-(4-Methylpiperazin-1-yl-carbonyl)-Cyclohexylalanyl-Isoleucyl]amino}-1-(2-naphthyl)-3,4-dihydroxy-6-methylheptane Hydrochloride]
18 | 3 nM | CCC(C)C(NC(=O)C(CC1CCCCC1)NC(=O)N1CCOCC1)C(=O)N[C@@H](Cc1ccc2ccccc2c1)[C@@H](O)[C@@H](O)CC(C)C (stereo partly drawn) [Example 53, (2S,3R,4S)-2-{[N-(Morpholin-1-yl-carbonyl)-Cyclohexylalanyl-Isoleucyl]amino}-1-(2-naphthyl)-3,4-dihydroxy-6-methylheptane]
19 | 4 nM | CCC(C)C(NC(=O)C(CC(=O)OCc1ccccc1)NC(=O)OC(C)(C)C)C(=O)NC(C(=O)N[C@@H](Cc1ccc2ccccc2c1)[C@@H](O)[C@@H](O)CC(C)C)C(C)CC (stereo partly drawn) [Example 46, (2S,3R,4S)-2-{[N-Boc-Aspartyl(β-O-Benzyl)-Isoleucyl-Isoleucyl]amino}-1-(2-naphthyl)-3,4-dihydroxy-6-methylheptane]
20 | 9.5 nM | CCC(C)C(NC(=O)C(CC1CCCCC1)NC(=O)OC(C)(C)C)C(=O)NC(CC(C)C)C(O)CC(=O)NCC(C)C (stereo not shown) [Example 39, N-Boc-Cyclohexylalanyl-Isoleucyl-Statyl Isobutylcarboxamide]
21 | 5 nM | CC[C@H](C)[C@H](NC(=O)[C@H](C)N(C(=O)N(C)CCN(C)C)C1CCCCC1)C(=O)N[C@@H](Cc1ccc2ccccc2c1)[C@@H](O)[C@@H](O)CC(C)C [Example 54, (2S,3R,4S)-2-{[{N-(N,N-Dimethylaminoethyl)-N-methylamino}carbonyl -Cyclohexylalanyl-Isoleucyl]amino}-1-(2-naphthyl)-3,4-dihydroxy-6-methylheptane]
22 | 29 nM | CC[C@H](C)[C@H](NC(C)=O)C(=O)N[C@H](C(=O)N[C@@H](CC1CCCCC1)[C@@H](O)[C@@H](O)CC(C)C)[C@@H](C)CC [Example 27, (2S,3R,4S)-2-(N-Acetyl-Isoleucyl-Isoleucyl-Amino)-1-cyclohexyl-3,4-dihydroxy-6-methylheptane]
23 | 17 nM | CCC(C)C(NC(=O)OC(C)(C)C)C(=O)NC(C(=O)NC(CC(C)C)C(O)CC(=O)NCC1CCCCC1)C(C)CC (stereo not shown) [Example 35, N-Boc-Isoleucyl-Isoleucyl-Statyl Cyclohexylmethylcarboxamide]
24 | 51 nM | CCC(C)C(NC(=O)C(CC(C)(C)C)NC(=O)OC(C)(C)C)C(=O)NC(CC(C)C)C(O)CC(=O)O (stereo not shown) [Example 45, N-Boc-tert-Butylalanyl-Isoleucyl-Statyl-OH]
25 | 16 nM | CCC(C)C(NC(=O)C(CC1CCCCC1)NC(=O)OC(C)(C)C)C(=O)NC(CC(C)C)C(O)CC(=O)NCCN1CCOCC1 (stereo not shown) [Example 42, N-Boc-Cyclohexylalanyl-Isoleucyl-Statyl N-(2-(Morpholin-4-yl)ethyl)Carboxamide]
26 | 5 nM | CC[C@H](C)[C@H](NC(=O)[C@H](C)N(C1CCCCC1)S(=O)(=O)N1CCN(C)CC1)C(=O)N[C@@H](Cc1ccc2ccccc2c1)[C@@H](O)[C@@H](O)CC(C)C [Example 55, (2S,3R,4S)-2-{[N-(4-Methylpiperazin-1-yl-sulfonyl)-Cyclohexylalanyl-Isoleucyl]amino}-1-(2-naphthyl)-3,4-dihydroxy-6-methylheptane]
27 | 7 nM | CCC(C)C(NC(=O)C(CC(=O)OCc1ccccc1)NC(=O)OC(C)(C)C)C(=O)NC(C(=O)N[C@@H](CC1CCCCC1)[C@@H](O)[C@@H](O)CC(C)C)C(C)CC (stereo partly drawn) [Example 26, (2S,3R,4S)-2-(N-BOC-Aspartyl(β-O-Benzyl)-Isoleucyl-Isoleucyl -Amino)-1-cyclohexyl-3,4-dihydroxy-6-methylheptane]
28 | 33 nM | CC[C@H](C)[C@H](NC(=O)OCc1ccccc1)C(=O)N[C@H](C(=O)NC(CC(C)C)P(=O)(O)CC(=O)OC(C)(C)C)[C@@H](C)CC (stereo partly shown) [Example 33, [1-[N-Cbz-Isoleucyl-Isoleucyl-Amino]-3-methylbutyl (hydroxy)phosphinyl]acetic acid tert-Butyl ester]
29 | 18 nM | CCC(C)C(NC(=O)C(CC1CCCCC1)NC(=O)OC(C)(C)C)C(=O)NC(CC(C)C)C(O)CC(=O)NCCN(C)C (stereo not shown) [Example 41, N-Boc-Cyclohexylalanyl-Isoleucyl-Statyl N-(2-N',N'-Dimethylaminoethyl)Carboxamide]
30 | 7 nM | CCC(C)C(NC(=O)C(CC1CCCCC1)NC(=O)CCC(=O)O)C(=O)N[C@@H](Cc1ccc2ccccc2c1)[C@@H](O)[C@@H](O)CC(C)C (stereo partly drawn) [Example 48, (2S,3R,4S)-2-{[N-Succinyl-Cyclohexylalanyl-Isoleucyl]amino}-1-(2-naphthyl)-3,4-dihydroxy-6-methylheptane]
31 | 10 nM | CCC(C)C(NC(=O)OC(C)(C)C)C(=O)NC(C(=O)NC(CC(C)C)C(O)CC(=O)N(C)CC(C)C)C(C)CC (stereo not shown) [Example 52, N-Boc-Isoleucyl-Isoleucyl-Statyl N-Methyl-N-Isobutyl Carboxamide]
